Laboratory results: US9695219B2, “Polypeptide having antibacterial activity and angiogenesis-inducing activity and wound-healing drug containing said polypeptide” (priority 2009, dated 2017)
Where a SMILES comes first, the peptide text is derived from it. [ ]: non-standard residue; d: D form.

How the values were obtained:
[1] = tested on: Bacteroides fragilis; experiment: microbe, parasite or virus in culture; format: cell-based; settings: 37° C. for 20 hours; tested twice, first/second value where not matched
Protocol: (§1) Further, with respect to not only the above-described strains but also various other strains, the “minimum inhibitory concentration (MIC)” was measured as follows. MIC is the lowest concentration of an agent that may inhibit the growth of a bacterium. MIC is used as a parameter for the efficacy of an antibacterial agent, for the strength of bacterial sensitivity, or the like. The bacteria can grow (proliferate) when the concentration is not higher than MIC, and cannot grow when the concentration is higher than MIC. Its measurement is carried out according to a method defined as a standard method by Japanese Society of Chemotherapy or CLINICAL AND LABORATORY […] (CLSI), but, in this Example, its measurement was carried out by a broth microdilution method in accordance with “M100-S17/M7-A7” (Performance Standards for Antimicrobial Susceptibility Testing; Seventeenth Informational Supplement, Vol. 27 No. 1) published by CLSI on January, 2007. That is, sensitivity test of agents was carried out using a microtiter plate or test tubes.
(§2) The bacteria were cultured in liquid media for 4 to 6 hours, and thereafter absorbances at A600 were measured. Bacterial suspensions were diluted with Mueller-Hinton broth (MHB) according to McFarland #0.5. Each strain was added so as to attain about 10^5 CFU/ml (final concentration). Each peptide was prepared to an optional concentration, and the solutions were serially diluted from the concentration. The polypeptide at each concentration stage was added to a microplate or test tubes, and the bacterial suspension was added thereto. Chloramphenicol, amphotericin B, ciprofloxacin, meropenem (MEPM), ciprofloxacin (CPFX), tobramycin (TOB) and oxacillin (OX) were used as positive controls. The plate was incubated at 37° C. for 20 hours, and the lowest concentration where bacterial growth was inhibited was regarded as the minimum inhibitory concentration.

[2] = tested on: Clostridium ramosum; experiment: microbe, parasite or virus in culture; format: cell-based; settings: 37° C. for 20 hours; tested twice, first/second value where not matched
Protocol: as §1, §2

[3] = tested on: Salmonella typhimurium; experiment: microbe, parasite or virus in culture; format: cell-based; settings: 37° C. for 20 hours; tested twice, first/second value where not matched
Protocol: as §1, §2

[4] = tested on: burn-ulcer model, hairless rats; experiment: Effect to heal burn ulcers; format: in vivo, rat; settings: 0.2 μg/μL (20 μg/wound), once a day
Protocol: A burn model was produced using 7-week old male hairless rats (HWY/slc), and the healing effect of the polypeptides of the present invention was examined. The burn-ulcer model was produced by contacting a red hot iron (at 100° C., φ12 mm) to the back of each rat for 5 seconds under anesthesia with ether to induce a burn. […] On the day after inducing the burn, the necrotic skin was surgically removed to obtain a burn model. After producing the burn model, the test substance was administered onto the wound site, and a covering was used to cover over that (Day 0). Only a covering was used in the Control. Thereafter, the test substance was administered once a day on every measurement day. And, on Day 6 and Day 8, the change of the area of the wound was measured by calculating measured values from a digital caliper and digital images, and the area where the burns had still not healed was measured to calculate the ratio of it relative to the area where the burns were created (Day 0). The concentration of the test substances were individually 0.2 μg/μL (20 μg/wound).

[5] = tested on: decubitus model, hairless rats; experiment: Healing effect on decubituses; format: in vivo, rat; settings: 0.2 μg/uL (4 μg/wound)
Protocol: In order to confirm the healing effect on a decubitus, one of skin ulcers, a decubitus model was produced using 7-week old male hairless rats (HWY/slc), and the healing effect of the polypeptides of the present invention was examined. A pair of magnets (φ10×5 mm; available from AZBIO KENIS; rare earth magnets; Type: KD-2; Code: 3-118-119; and, Magnetic Flux Density: 350 mT) was contacted to the skin of the back of each rat for 8 hours to induce a decubitus. On the day after inducing the decubitus, the necrotic skin was surgically removed to obtain a decubitus model. After producing the decubitus model, the test substance was administered onto the wound site, and a covering was used to cover over that (Day 0). Only a covering was used in the Control. Thereafter, on every measurement day, the test substance was administered once a day, and the change of the area of the wound was measured by calculating measured values from a digital caliper and digital images. The concentration of the test substances were individually 0.2 μg/uL (4 μg/wound). The area where the burns had still not healed was measured to calculate the ratio of it relative to the area where the burns were created (Day 0).

CC[C@H](C)[C@H](NC(=O)[C@H](CC(C)C)NC(=O)[C@H](CCCCN)NC(=O)[C@@H](N)CC(C)C)C(=O)N[C@@H](Cc1ccccc1)C(=O)N[C@@H](CC(C)C)C(=O)N[C@@H](Cc1c[nH]cn1)C(=O)N[C@@H](CCCNC(=N)N)C(=O)N[C@@H](CC(C)C)C(=O)N[C@@H](CCCCN)C(=O)N[C@@H](CCCNC(=N)N)C(=O)N[C@@H](CCSC)C(=O)N[C@@H](CCCNC(=N)N)C(=O)N[C@@H](CCCCN)C(=O)N[C@@H](CCCNC(=N)N)C(=O)N[C@@H](CC(C)C)C(=O)N[C@H](CCCCN)C(=O)N[C@@H](CCCNC(=N)N)C(=O)N[C@@H](CCCCN)C(N)=O [SR-08] (H-LKLIFLHRLKRMRKRL[dK]RK-NH2; N-terminus assumed)
MIC, Bacteroides fragilis [1]: 64/128
MIC, Clostridium ramosum [2]: 32/16
MIC, Salmonella typhimurium [3]: 8/4
Healing effect in burn-ulcer model (unhealed area ratio Day 6 and Day 8, FIGS. 14 and 15) [4]: showed a therapeutic effect also in the burn-ulcer model
Healing effect on decubitus (unhealed area ratio, FIGS. 16 and 17) ([5]; once a day): showed a therapeutic effect also in decubituses
Ratio of remaining wound area on Day 12, Mean Value ([5]; decubitus model, Day 12, Control Group 4.516729): 0.7902
